In data set [1] the test system is PC-3. As to the kind of experiment: Inhibition of cell proliferation of human PC3 cells at 10 uM incubated for 24 hrs by BrdU incorporation assay. Particulars: PC-3, 24 h. The class given is functional. For orientation: Dividing cells build labelled thymidine or BrdU into new DNA.
Data set [2] relates to PC-3. As to the kind of experiment: Increase in small cell lung cancer related gene expression in human PC3 cells at 10 uM incubated for 8 hrs by Affymetrix human exon array relative to untreated control. The class given is functional.
The subject of the next data set is HepG2. Kind of data set: Cytotoxicity against human HepG2 cells incubated for 24 hrs by WST1 dye reduction assay. The following applies: HepG2, 24 h.
Data set [3] can be described thus: Binding affinity to insulin A chain N-terminal pentapeptide assessed as compound-insulin adduct formation by LC-MS method.
The next data set has as its system DU-145. As to the kind of experiment: Cytotoxicity against human DU145 cells incubated for 24 hrs by WST1 dye reduction assay. Particulars: DU-145, 24 h. For orientation: Tetrazolium assays rely on reduction of a dye to a coloured formazan, in cell work by metabolically active cells.
Data set [4] can be described thus: Binding affinity to insulin B chain N-terminal pentapeptide assessed as compound-insulin adduct formation by LC-MS method.
The test system of data set [5] is PC-3. Kind of data set: Increase in p53 signaling pathway related gene expression in human PC3 cells at 10 uM incubated for 8 hrs by Affymetrix human exon array relative to untreated control. The class given is functional.
Data set [6] deals with PC-3. Kind of data set: Increase in chronic myeloid leukemia related gene expression in human PC3 cells at 10 uM incubated for 8 hrs by Affymetrix human exon array relative to untreated control. The class given is functional.
Data set [7] has as its system PC-3. As to the kind of experiment: Increase in cell cycle related gene expression in human PC3 cells at 10 uM incubated for 8 hrs by Affymetrix human exon array relative to untreated control. The class given is functional.
Data set [8] concerns PC-3. As to the kind of experiment: Increase in TGF-beta signaling pathway related gene expression in human PC3 cells at 10 uM incubated for 8 hrs by Affymetrix human exon array relative to untreated control. The class given is functional.
Data set [9] concerns PC-3. As to the kind of experiment: Increase in apoptosis gene expression in human PC3 cells at 10 uM incubated for 8 hrs by Affymetrix human exon array relative to untreated control. The class given is functional.
Data set [10] has as its system PC-3. As to the kind of experiment: Increase in base excision repair related gene expression in human PC3 cells at 10 uM incubated for 8 hrs by Affymetrix human exon array relative to untreated control. The class given is functional.
Data set [11] has as its system PC-3. Kind of data set: Induction of p21 protein expression in human PC3 cells at 10 uM incubated for 8 hrs by Western blotting in presence of 50 uM PI3K inhibitor LY294002 relative to untreated control. The class given is functional. On the technique in general: A western blot detects proteins with antibodies after separation by electrophoresis.
In data set [12] the test system is PC-3. As to the kind of experiment: Increase in ErbB signaling pathway related gene expression in human PC3 cells at 10 uM incubated for 8 hrs by Affymetrix human exon array relative to untreated control. The class given is functional.
Data set [13] has as its system PNT1A. As to the kind of experiment: Increase in systemic lupus erythematosus related gene expression in human PNT1A cells at 10 uM incubated for 8 hrs by Affymetrix human exon array relative to untreated control. The class given is functional.
Data set [14] can be described thus: Antiproliferative activity against human PNT1A cells at 50 uM incubated for 24 hrs by BrdU incorporation assay. The class given is cell-based.
Data set [15] relates to PC-3. As to the kind of experiment: Increase in systemic lupus erythematosus related gene expression in human PC3 cells at 10 uM incubated for 8 hrs by Affymetrix human exon array relative to untreated control. The class given is functional.
Data set [16] has as its system PC-3. Kind of data set: Increase in one carbon pool by folate related gene expression in human PC3 cells at 10 uM incubated for 8 hrs by Affymetrix human exon array relative to untreated control. The class given is functional.
Data set [17] in a line: Induction of p21 protein expression in human PNT1A cells at 10 uM incubated for 8 hrs by Western blotting. The class given is cell-based.
For data set [18], the system named is PC-3. Kind of data set: Increase in ABC transporters related gene expression in human PC3 cells at 10 uM incubated for 8 hrs by Affymetrix human exon array relative to untreated control. The class given is functional.
For data set [19], the system named is PNT1A. As to the kind of experiment: Increase in axon guidance related gene expression in human PNT1A cells at 10 uM incubated for 8 hrs by Affymetrix human exon array relative to untreated control. The class given is functional.
The test system of data set [20] is PC-3. As to the kind of experiment: Cytotoxicity against human PC3 cells incubated for 24 hrs by WST1 dye reduction assay. Particulars: PC-3, 24 h.
Data set [21] concerns PC-3. As to the kind of experiment: Increase in glioma related gene expression in human PC3 cells at 10 uM incubated for 8 hrs by Affymetrix human exon array relative to untreated control. The class given is functional.
Data set [22] has as its system PC-3. As to the kind of experiment: Increase in alanine and aspartate metabolism related gene expression in human PC3 cells at 10 uM incubated for 8 hrs by Affymetrix human exon array relative to untreated control. The class given is functional.
Data set [23] has as its system PC-3. Kind of data set: Increase in nucleotide excision repair related gene expression in human PC3 cells at 10 uM incubated for 8 hrs by Affymetrix human exon array relative to untreated control. The class given is functional.
Data set [24] concerns PC-3. As to the kind of experiment: Increase in mismatch repair related gene expression in human PC3 cells at 10 uM incubated for 8 hrs by Affymetrix human exon array relative to untreated control. The class given is functional.
Data set [25] concerns PNT1A. Kind of data set: Increase in apoptosis related gene expression in human PNT1A cells at 10 uM incubated for 8 hrs by Affymetrix human exon array relative to untreated control. The class given is functional.
The test system of data set [26] is PC-3. As to the kind of experiment: Increase in epithelial cell signaling in Helicobacter pylori infection related gene expression in human PC3 cells at 10 uM incubated for 8 hrs pre-treated for 1 hr with 50 uM PI3K inhibitor LY294002 by Affymetrix human exon array relative to untreated control. The class given is functional.
In data set [27] the test system is PNT1A. Kind of data set: Increase in glutathione metabolism related gene expression in human PNT1A cells at 10 uM incubated for 8 hrs by Affymetrix human exon array relative to untreated control. The class given is functional.
Data set [28] has as its system PC-3. Kind of data set: Increase in lysine degradation related gene expression in human PC3 cells at 10 uM incubated for 8 hrs by Affymetrix human exon array relative to untreated control. The class given is functional.
Data set [29] deals with PC-3. Kind of data set: Increase in prostate cancer related gene expression in human PC3 cells at 10 uM incubated for 8 hrs by Affymetrix human exon array relative to untreated control. The class given is functional.
For data set [30], the system named is PC-3. As to the kind of experiment: Increase in aminoacyl-tRNA biosynthesis related gene expression in human PC3 cells at 10 uM incubated for 8 hrs by Affymetrix human exon array relative to untreated control. The class given is functional.
Data set [31] has as its system PNT1A. Kind of data set: Increase in glycine, serine, and threonine metabolism related gene expression in human PNT1A cells at 10 uM incubated for 8 hrs by Affymetrix human exon array relative to untreated control. The class given is functional.
Data set [32] relates to PC-3. As to the kind of experiment: Increase in glycolysis/gluconeogenesis related gene expression in human PC3 cells at 10 uM incubated for 8 hrs by Affymetrix human exon array relative to untreated control. The class given is functional.
The subject of data set [33] is PC-3. Kind of data set: Increase in pyrimidine metabolism related gene expression in human PC3 cells at 10 uM incubated for 8 hrs by Affymetrix human exon array relative to untreated control. The class given is functional.
Data set [34] relates to PC-3. Kind of data set: Increase in DNA replication related gene expression in human PC3 cells at 10 uM incubated for 8 hrs by Affymetrix human exon array relative to untreated control. The class given is functional.
Data set [35] relates to PC-3. Kind of data set: Increase in colorectal cancer related gene expression in human PC3 cells at 10 uM incubated for 8 hrs by Affymetrix human exon array relative to untreated control. The class given is functional.
Data set [36] concerns PC-3. As to the kind of experiment: Increase in homologous recombination related gene expression in human PC3 cells at 10 uM incubated for 8 hrs by Affymetrix human exon array relative to untreated control. The class given is functional.
Another data set deals with Caco-2. Kind of data set: Cytotoxicity against human Caco2 cells incubated for 24 hrs by WST1 dye reduction assay. Particulars: Caco-2, 24 h.
The subject of data set [37] is PC-3. Particulars: Homo sapiens, 25 uM.
Description: Inhibition of cell proliferation of human PC3 cells at 25 uM incubated for 24 hrs by BrdU incorporation assay
For data set [38], the system named is PNT1A. As to the kind of experiment: Increase in cytokine-cytokine receptor interaction related gene expression in human PNT1A cells at 10 uM incubated for 8 hrs by Affymetrix human exon array relative to untreated control. The class given is functional.
For data set [39], the system named is PC-3. As to the kind of experiment: Induction of p21 protein expression in human PC3 cells at 50 uM incubated for 8 hrs by Western blotting relative to untreated control. The class given is functional, cell-based.
A short description of data set [40]: Induction of p21 protein expression in human PNT1A cells at 50 uM incubated for 8 hrs by Western blotting. The class given is cell-based.

Active and inactive are the calls of the source. No cut-off for these calls is given here.

With `S=C=NCCc1ccccn1`, the inhibition (in general, the relative decrease from the control value, in per cent) at 10 µM in the data set on PC-3 [1] was greater than 80%. Also, the “fold change (FC)” value in the data set on PC-3 [2] turned out to be 1.6; with PC-3 [5], 2.1; with PC-3 [6] it was 1.9; in the data set on PC-3 [7], 2.6; with PC-3 [8] it was 1.5; in the data set on PC-3 [9], 1.9. The “fold change (FC)” value in the data set on PC-3 [10] came out at 2.1; in the data set on PC-3 [11], 8; with PC-3 [12] it was 1.6; with PNT1A [13], 3.6; in the data set with PC-3 [15], 1.8; in the data set with PC-3 [16], 2.8. The “fold change (FC)” value in the data set on PC-3 [18] is recorded as 1.6; in the data set on PNT1A [19], 1.9; in the data set on PC-3 [21] it was 1.9; in the data set with PC-3 [22] it was 2; in the data set with PC-3 [23], 1.8; in the data set on PC-3 [24], 2.6. Further, the “fold change (FC)” value was 2.5 in the data set on PNT1A [25]; 1.6 in the data set with PC-3 [26]; 2.8 with PNT1A [27]; 1.8 in the data set on PC-3 [28]; 1.9 in the data set with PC-3 [29]; 1.8 in the data set with PC-3 [30]. The “fold change (FC)” value in the data set on PNT1A [31] is 3.1; in the data set on PC-3 [32] it was 1.6; in the data set on PC-3 [33] it was 1.6; in the data set on PC-3 [34] it was 3.1; in the data set with PC-3 [35], 1.5; in the data set with PC-3 [36] it was 2.4. For the same compound, the IC50 (in general, the point on the concentration scale where inhibition reaches its midpoint) with HepG2 came to 15.3 µM; with DU-145, 4.44 µM; in the data set on PC-3 [20], 12.8 µM; in the data set with Caco-2, 15.2 µM. Also, the outcome in data set [3] and in data set [4] was Active. For the same compound, the Activity entry in [14] and in data set [17] was “Non-toxic” in each case.
On to `C[S+]([O-])CCCCN=C=S` (stereo not drawn) [SULFORAPHANE], for which the IC50 was determined as 24.9 µM with HepG2, 13.8 µM in the data set on DU-145, 32.4 µM with PC-3 [20] and 79.8 µM with Caco-2. Also, the result in data set [3] and in data set [4] was Active. Besides, the results for the “fold change (FC)” value in the data set on PNT1A [13], in the data set on PNT1A [25] and in the data set on PNT1A [38] were 4.3, 4.8 and 3.3, respectively. Also, the Activity entry in data set [14] and in data set [17] was “Non-toxic” in each case. The inhibition entry in the data set with PC-3 [37] is “Active”.
For `O=c1cc(N2CCOCC2)oc2c(-c3ccccc3)cccc12` [LY-294002], in the data set on PC-3 [39], the result was Active. Besides, the Activity result in data set [40] is given as “Toxic”.

The record behind these values is ChEMBL document CHEMBL2177083, “Enhanced in vitro biological activity of synthetic 2-(2-pyridyl) ethyl isothiocyanate compared to natural 4-(methylsulfinyl) butyl isothiocyanate” (J Med Chem, 2012).
